The results in this text go back to patent EP1096004B1, “Pro-fragrance compounds” (THE PROCTER & GAMBLE COMPANY, priority 1996, dated 1997).

Each structure is given as a SMILES string.

A short description of this data set: Pro-Fragrant Hydrolysis Test (hydrolysis half-life by UV/Vis spectroscopy). Format: physicochemical. As to conditions: acid hydrolysis at pH 0 (1N HCl), 90/10 dioxane/water, 30°C. The procedure: Hydrolysis half-life is the measurement used to determine the ease with which the pro-fragrance compound undergoes acid hydrolysis and thereby releases its fragrance component(s) upon exposure to acid conditions. […] Preferably, pro-fragrance of the invention has a half-life at pH 2 of less than 60 minutes. For granular detergents, the more reactive pro-fragrances, that is, those with half-life at […] of less than one minute, are most suitable, although those having a half-life of less than 60 minutes at pH 0 are also useful. […]
All measurements are carried out using a Hewlett Packard 8452 A Diode Array Spectrophotometer using quartz 1 cm path length cuvette cells. […] The pH's are measured using an Orion 230 A standardized with pH 4 and pH 7 buffers. […]
Pro-fragrance is weighed out in a 10.00 ml volumetric flask using an analytical balance (Mettler AE 200) Precision is 1/10 mg. […] Hydrolysis time is measured, starting upon addition of the acid. […] The absorbance of the pro-fragrance solution (At) is followed at a regular series of time intervals, and the cuvette is kept in the water-bath at the above-indicated temperature between measurements. […] The wavelength at which the hydrolysis is followed is chosen at the wavelength of the absorbance maximum of the parent aldehyde or ketone.
Reaction half-lifes are determined using conventional procedures. […]

Regarding `CC(C)=CCCC(C)=CC(OC/C=C(\C)CCC=C(C)C)OC/C=C(\C)CCC=C(C)C` [Example 1, Digeranyl Citral Acetal], the “t 1/2 at 0 pH” value was “less than one”.
